Data published in US20090233942A1, “Genetic markers associated with response to antidepressants” (priority 2008, published 2009).

Tests used:
[1] = test system: patients with MDD; assay: Five Phase II studies of vilazodone, eight weeks of treatment; type: in vivo, human
Excerpt: As part of the vilazodone development program, five Phase II studies have been conducted, all in patients with MDD. These studies randomized 2,098 patients for eight weeks of treatment, 1196 of whom received vilazodone.

[2] = test system: beagle dogs; assay: Pre-clinical study in beagle dogs; type: in vivo, dog

## Cl.N#Cc1ccc2[nH]cc(CCCCN3CCN(c4ccc5oc(C(N)=O)cc5c4)CC3)c2c1 [Vilazodone, 5-{4-[4-(5-Cyano-3-indolyl)-butyl]-1-piperazinyl}-benzofuran-2-carboxamide hydrochloride]
[1]; Phase II studies
  overall safety: generally shown to be safe
[1]; Phase II, subjects treated with vilazodone
  clinically significant finding from ophthalmologic examinations: increase in the incidence of mild ocular drying
[1]; each of the Phase II studies
  primary efficacy variable compared to placebo: did not show a statistically significant difference
[1]; exploratory analyses of Phase II studies
  response stratified by baseline disease severity: a larger treatment effect is observed for more severely depressed patients
[1]; reported by at least ten percent of vilazodone-treated patients, Phase II, MDD
  most common adverse events: nausea, diarrhea, headache, insomnia, dizziness, dry mouth, somnolence, abnormal dreams, and vomiting
[2]
  ocular findings: treatment emergent corneal opacities and reduced tear production
